Where two headings read alike, the source gives them in different places.
Columns and labels:
[1] = compatibility and stability of additives dissolved or suspended in water-based polyacrylic acid carbomer matrixes; conditions: for compatibility in carrier matrix: short term
From the text: (§1) The differing chemical characteristics of the various additives require each ingredient or blend of ingredients to be dissolved or suspended in a customized matrix in order to ensure desired delivery of the additive in question. […] A number of characteristics were studied for each desired additive compound or complex, such as the degree of chemical affinity to water, solubility rates in various solvents and at various levels of pH, and degradation rates upon exposure to various environmental factors including oxygen levels in ambient air and temperature, as well as individual tolerance to extreme shifts in pH levels.

[2] = solubility characteristics of additives
From the text: as §1
This is accomplished, for example, in a suspension of 3% Xanthan gum and 0.5% Noveon Carbopol Carbomer in distilled water with 20% Ethanol (to aid in speeding the drying time). This solution is then sprayed on to the interior of the cup and allowed to dry. […] Again, this would be delivered in a flavor-masked suspension of 3% Xanthan gum and 0.5% Noveon Carbopol Carbomer.

[3] = dissolved or suspended in water-based polyacrylic acid carbomer matrixes
[4] = require suspension prior to administration to the cup

| Molecule | stability in carrier matrix [1] | compatibility in carrier matrix [1, 3] | other results |
| --- | --- | --- | --- |
| C[C@H](N)C(=O)O [Alanine] | stable | compatible |  |
| N=C(N)NCCC[C@H](N)C(=O)O [Arginine] | stable | compatible |  |
| NC(=O)C[C@H](N)C(=O)O [Asparagine] | stable | compatible |  |
| N[C@@H](CC(=O)O)C(=O)O [Aspartic acid] | stable | compatible |  |
| O=C(O)CCCC[C@@H]1SC[C@@H]2NC(=O)N[C@@H]21 [Biotin] | stable | compatible |  |
| C[N+](C)(C)CCO [Choline] | stable |  |  |
| [Cr] [Chromium] |  |  | solubility [2, 4]: Insoluble |
| COC1=C(OC)C(=O)C(C/C=C(\C)CC/C=C(\C)CC/C=C(\C)CC/C=C(\C)CC/C=C(\C)CC/C=C(\C)CC/C=C(\C)CC/C=C(\C)CC/C=C(\C)CCC=C(C)C)=C(C)C1=O [Coenzyme Q10] |  |  | solubility [2, 4]: Insoluble |
| [Cu] [Copper] |  |  | solubility [2]: Insoluble |
| N[C@@H](CS)C(=O)O [Cysteine] | stable | compatible |  |
| Nc1nc2ncc(CNc3ccc(C(=O)N[C@@H](CCC(=O)O)C(=O)O)cc3)nc2c(=O)[nH]1 [Folic Acid] |  |  | solubility [2]: Insoluble |
| N[C@@H](CCC(=O)O)C(=O)O [Glutamic acid] |  | compatible | stability in carrier matrix ([1]; dissolved or suspended in water-based polyacrylic acid carbomer matrixes, longer term): stable |
| NC(=O)CC[C@H](N)C(=O)O [Glutamine] | stable | compatible |  |
| NCC(=O)O [Glycine] | stable | compatible |  |
| N[C@@H](Cc1c[nH]cn1)C(=O)O [Histidine] | stable | compatible |  |
| CC[C@H](C)[C@H](N)C(=O)O [Isoleucine] | stable | compatible |  |

| Molecule | stability in carrier matrix [1] | compatibility in carrier matrix [1, 3] | other results |
| --- | --- | --- | --- |
| CC(C)C[C@H](N)C(=O)O [Leucine] | stable | compatible |  |
| NCCCC[C@H](N)C(=O)O [Lysine] | stable | compatible |  |
| [Mg+2] [Magnesium] |  |  | solubility [2, 4]: Insoluble |
| [Mn+2] [Manganese] |  |  | solubility [2, 4]: Insoluble |
| CSCC[C@H](N)C(=O)O [Methionine] | stable | compatible |  |
| [Mo] [Molybdenum] |  |  | solubility [2]: Insoluble |
| Nc1ccc(C(=O)O)cc1 [PABA, Para-Aminobenzoic Acid] |  |  | solubility [2, 4]: Insoluble |
| N[C@@H](Cc1ccccc1)C(=O)O [Phenylalanine] | stable | compatible |  |
| [K+] [Potassium] |  |  | solubility [2]: Insoluble |
| [Se] [Selenium] |  |  | solubility [2, 4]: Insoluble |
| N[C@@H](Cc1c[nH]c2ccccc12)C(=O)O [Tryptophan] | stable | compatible |  |
| [Zn] [Zinc] |  |  | solubility [2, 4]: Insoluble |
| Iodine |  |  | solubility [2, 4]: Insoluble |
| Vitamin D |  |  | solubility [2, 4]: Insoluble |
| Vitamin E |  |  | solubility [2]: Insoluble |
| Vitamin K |  |  | solubility [2]: Insoluble |

More lines, main results first:

| stability in carrier matrix [1] | compatibility in carrier matrix [1, 3] | Molecule | other results |
| --- | --- | --- | --- |
| stable | compatible | O=C(O)[C@@H]1CCCN1 [Proline] |  |
| stable | compatible | N[C@@H](CO)C(=O)O [Serine] |  |
| stable | compatible | C[C@@H](O)[C@H](N)C(=O)O [Threonine] |  |
| stable | compatible | N[C@@H](Cc1ccc(O)cc1)C(=O)O [Tyrosine] |  |
| stable | compatible | CC(C)[C@H](N)C(=O)O [Valine] |  |
| stable | compatible | CC1=C(/C=C/C(C)=C/C=C/C(C)=C/C=C/C=C(C)/C=C/C=C(C)/C=C/C2=C(C)CCCC2(C)C)C(C)(C)CCC1 [Vitamin A, Beta-Carotene] |  |
| stable | compatible | Cc1ncc(C[n+]2csc(CCO)c2C)c(N)n1 [Vitamin B1, Thiamine] |  |
| stable | compatible | Cc1cc2nc3c(=O)[nH]c(=O)nc-3n(C[C@H](O)[C@H](O)[C@H](O)CO)c2cc1C [Vitamin B2, Riboflavin] |  |
| stable | compatible | CC(C)(CO)[C@@H](O)C(=O)NCCC(=O)O [Vitamin B5, Pantothenic Acid] |  |
| stable | compatible | Cc1ncc(CO)c(CO)c1O [Vitamin B6, Pyridoxine] |  |
| stable | compatible | Cyanocobalamin [Vitamin B12] |  |

Source: US20090130261A1, “Vit-A-Cup” (priority 2007, published 2009)
